In ChEMBL document CHEMBL3885861, “Open TG-GATES”:

Organism: Rattus norvegicus
Assay: Open TG-GATES - Regimen: Daily Repeat
Assay type: toxicity, organism-based, Sprague-Dawley
Set-up: regimen Daily Repeat, gender Male, age 6 weeks
Conditions: in vivo, po, 1200 mg/kg, route gavage, dose level Middle; for APTT / Bas / Eos / Fbg / Hb / Ht / Lym / MCH / MCHC / MCV / Mono / Neu / PT / Plat / RBC / Ret / WBC: tissue Blood; for KIDNEY_L / KIDNEY_R / KIDNEY_TOTAL: tissue Kidney; for LIVER: tissue Liver; for A/G / ALP / ALT / AST / BUN / CRE / Ca / Cl / DBIL / GLC / IP / K / LDH / Na / PL / RALB / TBIL / TC / TG / TP / gamma-GTP: tissue Plasma

CCO [ALCOHOL]
TERMINAL_BW (72 h, time 3 day): 236.1 g | APTT (72 h, time 3 day): 17.5 s | Bas (72 h, time 3 day): 0% | Eos (72 h, time 3 day): 1.2% | Fbg (72 h, time 3 day): 209 mg/dL | Hb (72 h, time 3 day): 13.9 g/dL | Ht (72 h, time 3 day): 41% | Lym (72 h, time 3 day): 74.6% | MCH (72 h, time 3 day): 21.6 pg | MCHC (72 h, time 3 day): 33.8% | MCV (72 h, time 3 day): 64 fL | Mono (72 h, time 3 day): 5.8% | Neu (72 h, time 3 day): 18% | PT (72 h, time 3 day): 11.3 s | Plat (72 h, time 3 day): 124.3 x10_4/uL | RBC (72 h, time 3 day): 642.4 x10_4/ul | Ret (72 h, time 3 day): 7.7% | WBC (72 h, time 3 day): 106.2 x10_2/uL | KIDNEY_L (72 h, time 3 day): 1.1 g | KIDNEY_R (72 h, time 3 day): 1.1 g | KIDNEY_TOTAL (72 h, time 3 day): 2.1 g | LIVER (72 h, time 3 day): 11.5 g | A/G (72 h, time 3 day): 2.3 | ALP (72 h, time 3 day): 854.8 IU/L | ALT (72 h, time 3 day): 38.2 IU/L | AST (72 h, time 3 day): 65 IU/L | BUN (72 h, time 3 day): 20.2 mg/dL | CRE (72 h, time 3 day): 0.6 mg/dL | Ca (72 h, time 3 day): 11.2 mg/dL | Cl (72 h, time 3 day): 104 meq/L | DBIL (72 h, time 3 day): 0.026 mg/dL | GLC (72 h, time 3 day): 208.2 mg/dL | IP (72 h, time 3 day): 9 mg/dL | K (72 h, time 3 day): 4.7 meq/L | LDH (72 h, time 3 day): 113.6 IU/L | Na (72 h, time 3 day): 141 meq/L | PL (72 h, time 3 day): 145.6 mg/dL | RALB (72 h, time 3 day): 4.1 g/dL | TBIL (72 h, time 3 day): 0.3 mg/dL | TC (72 h, time 3 day): 74.2 mg/dL | TG (72 h, time 3 day): 89.2 mg/dL | TP (72 h, time 3 day): 5.8 g/dL | gamma-GTP (72 h, time 3 day): 1.4 IU/L | TERMINAL_BW ([…], time 7 day): 268.6 g | TERMINAL_BW ([…], time 14 day): 302.2 g | TERMINAL_BW ([…], time 28 day): 371.8 g | APTT ([…], time 7 day): 18.1 s | Bas ([…], time 7 day): 0% | Eos ([…], time 7 day): 0.8% | Fbg ([…], time 7 day): 227.4 mg/dL | Hb ([…], time 7 day): 14.3 g/dL | Ht ([…], time 7 day): 42.2% | Lym ([…], time 7 day): 81.8% | MCH ([…], time 7 day): 21.3 pg | MCHC ([…], time 7 day): 33.8% | MCV ([…], time 7 day): 62.9 fL | Mono ([…], time 7 day): 6.2% | Neu ([…], time 7 day): 11.4% | PT ([…], time 7 day): 11 s | Plat ([…], time 7 day): 127.6 x10_4/uL | RBC ([…], time 7 day): 670.6 x10_4/ul | Ret ([…], time 7 day): 6.1% | WBC ([…], time 7 day): 112 x10_2/uL | APTT ([…], time 14 day): 18.2 s | Bas ([…], time 14 day): 0% | Eos ([…], time 14 day): 1.2% | Fbg ([…], time 14 day): 227 mg/dL | Hb ([…], time 14 day): 15.4 g/dL | Ht ([…], time 14 day): 45.5% | Lym ([…], time 14 day): 80% | MCH ([…], time 14 day): 20.6 pg | MCHC ([…], time 14 day): 33.9% | MCV ([…], time 14 day): 60.8 fL | Mono ([…], time 14 day): 5.4% | Neu ([…], time 14 day): 13.6% | PT ([…], time 14 day): 11.4 s | Plat ([…], time 14 day): 115.9 x10_4/uL | RBC ([…], time 14 day): 749 x10_4/ul | Ret ([…], time 14 day): 4.5% | WBC ([…], time 14 day): 119.1 x10_2/uL | APTT ([…], time 28 day): 17.5 s | Bas ([…], time 28 day): 0% | Eos ([…], time 28 day): 1.4% | Fbg ([…], time 28 day): 224 mg/dL | Hb ([…], time 28 day): 15.4 g/dL | Ht ([…], time 28 day): 46.3% | Lym ([…], time 28 day): 73.2% | MCH ([…], time 28 day): 19.1 pg | MCHC ([…], time 28 day): 33.3% | MCV ([…], time 28 day): 57.3 fL | Mono ([…], time 28 day): 6.6% | Neu ([…], time 28 day): 18.8% | PT ([…], time 28 day): 11.1 s | Plat ([…], time 28 day): 104.5 x10_4/uL | RBC ([…], time 28 day): 809 x10_4/ul | Ret ([…], time 28 day): 7% | WBC ([…], time 28 day): 96.6 x10_2/uL | KIDNEY_L ([…], time 7 day): 1.1 g | KIDNEY_R ([…], time 7 day): 1.2 g | KIDNEY_TOTAL ([…], time 7 day): 2.3 g | KIDNEY_L ([…], time 14 day): 1.2 g | KIDNEY_R ([…], time 14 day): 1.2 g | KIDNEY_TOTAL ([…], time 14 day): 2.4 g | KIDNEY_L ([…], time 28 day): 1.3 g | KIDNEY_R ([…], time 28 day): 1.4 g | KIDNEY_TOTAL ([…], time 28 day): 2.7 g | LIVER ([…], time 7 day): 13.2 g | LIVER ([…], time 14 day): 13.7 g | LIVER ([…], time 28 day): 14.7 g | A/G ([…], time 7 day): 2.3 | ALP ([…], time 7 day): 946.6 IU/L | ALT ([…], time 7 day): 37.4 IU/L | AST ([…], time 7 day): 64.8 IU/L | BUN ([…], time 7 day): 20.8 mg/dL | CRE ([…], time 7 day): 0.5 mg/dL | Ca ([…], time 7 day): 10.6 mg/dL | Cl ([…], time 7 day): 103.8 meq/L | DBIL ([…], time 7 day): 0 mg/dL | GLC ([…], time 7 day): 202 mg/dL | IP ([…], time 7 day): 8.4 mg/dL | K ([…], time 7 day): 4.8 meq/L | LDH ([…], time 7 day): 108.4 IU/L | Na ([…], time 7 day): 141 meq/L | PL ([…], time 7 day): 154.4 mg/dL | RALB ([…], time 7 day): 4.1 g/dL | TBIL ([…], time 7 day): 0.3 mg/dL | TC ([…], time 7 day): 70.6 mg/dL | TG ([…], time 7 day): 132.4 mg/dL | TP ([…], time 7 day): 6 g/dL | gamma-GTP ([…], time 7 day): 1.4 IU/L | A/G ([…], time 14 day): 1.8 | ALP ([…], time 14 day): 821.6 IU/L | ALT ([…], time 14 day): 33 IU/L | AST ([…], time 14 day): 62.2 IU/L | BUN ([…], time 14 day): 19.2 mg/dL | CRE ([…], time 14 day): 0.5 mg/dL | Ca ([…], time 14 day): 10.8 mg/dL | Cl ([…], time 14 day): 105 meq/L | DBIL ([…], time 14 day): 0.018 mg/dL | GLC ([…], time 14 day): 205.6 mg/dL | IP ([…], time 14 day): 7.4 mg/dL | K ([…], time 14 day): 4.5 meq/L | LDH ([…], time 14 day): 104.4 IU/L | Na ([…], time 14 day): 141.8 meq/L | PL ([…], time 14 day): 159.8 mg/dL | RALB ([…], time 14 day): 3.9 g/dL | TBIL ([…], time 14 day): 0.3 mg/dL | TC ([…], time 14 day): 79 mg/dL | TG ([…], time 14 day): 114.2 mg/dL | TP ([…], time 14 day): 6.1 g/dL | gamma-GTP ([…], time 14 day): 1 IU/L | A/G ([…], time 28 day): 1.5 | ALP ([…], time 28 day): 558.4 IU/L | ALT ([…], time 28 day): 32.8 IU/L | AST ([…], time 28 day): 64 IU/L | BUN ([…], time 28 day): 21.4 mg/dL | CRE ([…], time 28 day): 0.6 mg/dL | Ca ([…], time 28 day): 10.2 mg/dL | Cl ([…], time 28 day): 107.4 meq/L | DBIL ([…], time 28 day): 0 mg/dL | GLC ([…], time 28 day): 221.2 mg/dL | IP ([…], time 28 day): 6.6 mg/dL | K ([…], time 28 day): 4.4 meq/L | LDH ([…], time 28 day): 83 IU/L | Na ([…], time 28 day): 141 meq/L | PL ([…], time 28 day): 151.4 mg/dL | RALB ([…], time 28 day): 3.6 g/dL | TBIL ([…], time 28 day): 0.3 mg/dL | TC ([…], time 28 day): 70.6 mg/dL | TG ([…], time 28 day): 181.6 mg/dL | TP ([…], time 28 day): 6.1 g/dL | gamma-GTP ([…], time 28 day): 1.4 IU/L
